{"source": "paper PMC10383195", "about": "“Interactions of the Kv1.1 Channel with Peptide Pore Blockers: A Fluorescent Analysis on Mammalian Cells” (Membranes, 2023)", "key": {"[1]": {"target": "T1, mKate2-tagged human Kv1.1 (S369T) channel (K-Kv1.1) (Homo sapiens, UniProt Q09470, S369T)", "T1 construct": "these fragments were combined and amplified using terminal primers to obtain the whole mutated gene; expressed in transfected cells; host or cells: mouse neuroblastoma Neuro2a cells, transient transfection with pmKate2-KCNA1m1", "T1 sequence (Q09470 whole entry S369T, the tested form may be a part)": "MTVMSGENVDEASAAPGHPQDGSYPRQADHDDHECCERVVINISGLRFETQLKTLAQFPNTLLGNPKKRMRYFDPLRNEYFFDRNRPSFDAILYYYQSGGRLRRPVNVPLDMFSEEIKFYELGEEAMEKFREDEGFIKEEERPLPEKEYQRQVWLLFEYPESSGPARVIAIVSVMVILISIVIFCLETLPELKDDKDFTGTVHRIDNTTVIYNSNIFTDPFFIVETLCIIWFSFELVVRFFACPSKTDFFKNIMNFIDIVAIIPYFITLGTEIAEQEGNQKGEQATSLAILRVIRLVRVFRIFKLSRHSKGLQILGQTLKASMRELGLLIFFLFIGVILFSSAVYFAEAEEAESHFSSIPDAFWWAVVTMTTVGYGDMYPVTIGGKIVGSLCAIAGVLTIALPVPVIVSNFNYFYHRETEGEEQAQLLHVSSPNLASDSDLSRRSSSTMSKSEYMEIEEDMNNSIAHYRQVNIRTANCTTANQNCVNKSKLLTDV", "experiment": "Competitive binding of peptide pore blocker and A-HgTx to K-Kv1.1 on the plasma membrane of Neuro2a cells (confocal microscopy)", "conditions": "A-HgTx (2 nM) displacement compared in complete medium, Na+ and K+ buffers", "method": "To analyze the binding of A-HgTx, A-HgTx (0.25–4 nM) was added to cells in a complete medium for 60 min. To analyze competitive binding, A-HgTx (2 nM), together with the selected peptide (0.05–160 nM), was added to cells in a complete medium for 60 min.\nTo compare ligand binding with closed and open channels, ligands were added to cells (60 min, 37 °C) in a buffer (20 mM HEPES pH 7.4, 0.9 mM CaCl2, 0.5 mM MgCl2, 0.1% BSA) supplemented with 4 mM KCl and 150 mM NaCl (Na^+ buffer) or with 150 mM KCl (K^+ buffer).\nThe fluorescence of the K-Kv1.1 and K-Kv1.1wt channels was excited at 561 nm and detected in the 650–700 nm region. A-HgTx fluorescence was excited at 488 nm and detected in the 495–535 nm region. Sequential scanning was used to measure the cellular distributions of A-HgTx and mKate2 fluorescence in order to avoid interference of mKate2 fluorescence with cellular autofluorescence excited at 488 nm.\nQuantitative analysis of the interaction of A-HgTx with K-Kv1.1 was carried out in accordance with the procedure developed previously for A-HgTx and the fluorescently labeled Kv1.3 channel. Briefly, the regions of interest with K-Kv1.1 on the plasma membrane were selected in the confocal images and used to create binary (0;1) masks that described the membranous distribution of K-Kv1.1. The confocal images of K-Kv1.1 and A-HgTx were multiplied by the corresponding mask, and the average fluorescence intensities of A-HgTx (Ili) and K-Kv1.1 (Ici) corrected for the background signal were calculated for each i-cell. Ratio Ri = Ili/Ici was calculated and averaged over 15–20 cells to obtain the Rav value and the standard deviation.\nTo analyze the competitive binding of the studied peptide pore blocker and A-HgTx to K-Kv1.1 on the cellular membrane, Rav data were plotted depending on the blocker concentration (C) at the constant A-HgTx concentration (L) and fitted with the following equation:Rav(C) = Rav0/(1 + C/DC50)(3) where DC50 is the blocker concentration displacing 50% of A-HgTx from the complex with K-Kv1.1, and Rav0 is Rav at C = 0.\nThe apparent dissociation constant (Kap) of the complex between the studied blocker and the K-Kv1.1 channel was calculated using the Cheng–Prusoff equation:Kap = DC50/(1 + L/Kd).(4)\nTwo independent experiments were performed, and the Kav data were averaged and presented as mean ± SEM. Fifteen to twenty-five treated cell images were the average value for each point on the curves of A-HgTx binding to the K-Kv1.1 channel."}, "[2]": {"test_system": "Kv1.3 channel", "conditions": "cited from earlier work", "method": "Exploring the potential of this analytical system, we have measured the Kap of the complex between the recombinant peptide Ce1 and the Kv1.1 channel (Figure 8c, Table 2) and classified Ce1 as a moderately active ligand of this channel. Toxin Ce1 was found in the venom of the scorpion Centruroides elegans and characterized as a high-affinity pore blocker of the Kv1.3 channel (IC50 = 0.7 nM). Its activity for the Kv1.1 channel was not previously reported."}, "[3]": {"target": "T2, K-Kv1.1 channel (hKv1.1S369T with mKate2) (Homo sapiens, UniProt Q09470, S369T)", "T2 construct": "these fragments were combined and amplified using terminal primers to obtain the whole mutated gene; expressed in transfected cells; host or cells: mouse neuroblastoma Neuro2a cells, transient transfection with pmKate2-KCNA1m1", "T2 sequence (Q09470 whole entry S369T, the tested form may be a part)": "as above", "experiment": "Whole-cell patch-clamp of currents through K-Kv1.1 in Neuro2a cells", "assay_type": "cell-based", "method": "Membrane ion currents through the K-Kv1.1 channel were recorded at room temperature by the patch-clamp technique using the standard whole-cell configuration as described earlier.\nBriefly, Neuro2a cells attached to coverslips (10 mm in diameter) pre-coated with poly-D-lysine were immersed in a buffer (140 mM NaCl, 2.8 mM KCl, 2 mM MgCl2, 2 mM CaCl2, 10 mM glucose, 10 mM HEPES, pH 7.4) and perfused continuously. Micropipettes with a tip resistance of 6–8 MΩ were filled with a pipette solution containing 140 mM KCl, 6 mM CaCl2, 2 mM MgCl2, 2 mM MgATP, 0.4 mM NaGTP, 10 mM HEPES, 20 mM BAPTA/KOH (pH 7.3). The patches were routinely held at a holding potential of −40 mV. The potential was changed from −70 to +70 mV (20 mV step) using 200 ms pulses, which were applied incrementally with an interval of 20 s. Finally, the potential returned to the holding potential.\nCells were measured 24–48 h after transfection. The cells were selected by K-Kv1.1 fluorescence. The cells were analyzed if their input resistance was more than 350 MΩ. The currents were recorded using an EPC-10 amplifier (HEKA Elektronik, Stuttgart, Germany).\n[…] The toxins were dissolved in a complete medium.\nThe measured concentration dependence of current inhibition through the K-Kv1.1 channel by A-HgTx was analyzed with the following equation:Irel(L) = 100/(1 + (IC50/L)^h) (1) where Irel is a decrease in current (%), L is the concentration of A-HgTx, IC50 is the concentration of A-HgTx that induces a 50% decrease in current, and h is the Hill coefficient."}, "[4]": {"target": "Kv1.3 channel", "conditions": "read-out: Kd of A-HgTx with Kv1.3 channel; cited from earlier work"}, "[5]": {"test_system": "Kv1.1 channel", "conditions": "concentrations up to 25 nM; cited from earlier work", "text": "Ce1 is a member of the α-KTx2 subfamily of scorpion toxins and is a close homolog of the well-studied toxins HgTx1, MgTx, and noxiustoxin (NTx, Table 3). […] Thus, Ce1 surpasses the closest homolog NTx in affinity for Kv1.1, but inferiors MgTx and especially HgTx in this characteristic (Table 2)."}}, "note": "Numbered stars: 1 amine (or outer) side, 2 acyl side, 3 side chain; on linkers, the order of the positions; unused ones are H or OH. Bridge positions count the residues as written; N and C are the ends. Square brackets hold non-standard residues; d marks the D form. Peptide text beside a SMILES is read from it. * marks the point of attachment. X1 = N=c1ccc2c(-c3ccccc3C(=O)*)c3ccc(N)c(S(=O)(=O)O)c3oc-2c1S(=O)(=O)O; NMeGABA = CN(CCCC(=O)[*:2])[*:1]", "data": [{"compound": "CC[C@H](C)[C@H](NC(=O)[C@@H](NC(=O)[C@@H](N)[C@@H](C)O)C(C)C)C(=O)N[C@@H](CC(N)=O)C(=O)N[C@H](C(=O)N[C@@H](CCCCN)C(=O)N[C@H]1CSSC[C@@H]2NC(=O)[C@H](CCCCN)NC(=O)[C@H](C)NC(=O)CNC(=O)[C@H](C)NC(=O)[C@H](Cc3c[nH]cn3)NC(=O)[C@@H]3CCCN3C(=O)CNC(=O)[C@H](Cc3ccc(O)cc3)NC(=O)[C@H](CC(C)C)NC(=O)[C@H](CC(=O)O)NC(=O)[C@H](CCCCN)NC(=O)[C@@H]3CSSC[C@@H](C(=O)N[C@@H](Cc4ccc(O)cc4)C(=O)N[C@@H](CC(N)=O)C(=O)N[C@@H](CC(N)=O)C(=O)O)NC(=O)[C@H](CCCCN)NC(=O)[C@H](CSSC[C@H](NC(=O)[C@H](CCC(N)=O)NC(=O)[C@H](CCCCN)NC(=O)[C@@H]4CCCN4C(=O)[C@H](CO)NC(=O)[C@H]([C@@H](C)O)NC1=O)C(=O)N[C@@H](CC(C)C)C(=O)N[C@@H](CCCCN)C(=O)N1CCC[C@H]1C(=O)N3)NC(=O)[C@H](CCCCN)NC(=O)CNC(=O)[C@H](CC(N)=O)NC(=O)[C@H](CCSC)NC2=O)C(C)C", "note": "[Ce1] (H-TVINVKCTSPKQCLKPCKDLYGPHAGAKCMNGKCKCYNN-OH; disulfide 7-29, 13-34, 17-36 (inferred); N-terminus and C-terminus assumed)", "values": [{"measurement": "effect of channel state (closed or open) on affinity of K-Kv1.1 for the peptide", "setting": "[1]", "result": "does not affect the affinity"}, {"measurement": "IC50", "setting": "[2]", "result": 0.7, "unit": "nM"}]}, {"compound": "CC[C@H](C)[C@@H]1NC(=O)CNC(=O)[C@H](Cc2ccccc2)NC(=O)[C@H](CCC(N)=O)NC(=O)[C@H](C)NC(=O)[C@H](CCCCN)NC(=O)[C@@H]2CSSC[C@@H](C(=O)N[C@@H](Cc3ccc(O)cc3)C(=O)N3CCC[C@H]3C(=O)N[C@@H](Cc3c[nH]cn3)C(=O)O)NC(=O)[C@H](CCCCN)NC(=O)[C@@H]3CSSC[C@H](NC(=O)[C@H](CCC(N)=O)NC(=O)[C@H](CCCCN)NC(=O)[C@@H]4CCCN4C(=O)[C@H](CO)NC(=O)[C@H]([C@@H](C)O)NC(=O)[C@@H](NC(=O)[C@H](CCCCN)NC(=O)[C@@H](NC(=O)[C@H](CC(=O)O)NC(=O)[C@@H](NC(=O)[C@@H](NC(=O)[C@@H](NC(=O)CCCN(C)C(=O)c4ccccc4-c4c5ccc(=N)c(S(=O)(=O)O)c-5oc5c(S(=O)(=O)O)c(N)ccc45)[C@@H](C)O)C(C)C)[C@@H](C)CC)C(C)C)CSSC[C@H](NC(=O)[C@H](CCCCN)NC(=O)[C@H](C)NC(=O)CNC(=O)[C@H](C)NC(=O)[C@H](CCCNC(=N)N)NC1=O)C(=O)N[C@@H](CCSC)C(=O)N[C@@H](CC(N)=O)C(=O)NCC(=O)N[C@@H](CCCCN)C(=O)N3)C(=O)N[C@@H](CC(C)C)C(=O)N1CCC[C@H]1C(=O)N1CCC[C@H]1C(=O)N2", "note": "[A-HgTx] (X1-[NMeGABA]TVIDVKCTSPKQCLPPCKAQFGIRAGAKCMNGKCKCYPH-OH; disulfide 8-30, 14-35, 18-37; C-terminus assumed)", "values": [{"measurement": "decrease in the amplitude of the current through K-Kv1.1", "setting": "[3]; 5 nM A-HgTx, applied voltage from −30 to 70 mV", "result": "~50", "unit": "%"}, {"measurement": "IC50", "setting": "[3]; +50 mV voltage, mean ± SEM (n = 6), SEM, read-out: IC50 (concentration of A-HgTx inhibiting current by 50%)", "result": "4.8 ± 0.2", "unit": "nM"}, {"measurement": "maximum current inhibition", "setting": "[3]; +50 mV, A-HgTx above 15 nM", "result": "ca. 75%"}, {"measurement": "Kd", "setting": "[4]", "result": "0.3 ± 0.13", "unit": "nM"}]}, {"compound": "noxiustoxin [NTx]", "values": [{"measurement": "block of the Kv1.1 channel", "setting": "[5]", "result": "does not block"}]}]}
